# Experimental data: patent publication US8288444B2 (Codman & Shurtleff, Inc., priority 2008, dated 2012)
# Where two headings read alike, the source gives them in different places.
# Key:
# [1] = system: PC 12 cells, βA (25-35); experiment: in vitro protection of PC 12 cells against beta amyloid (25-35) insult; assay type: cell-based; details: for potency as neuroprotectant against beta amyloid relative to curcumin: both peptides
# From the text: Park, J. Nat. Prod., 65, 9 Sep.
# [2] = cited from earlier work
# [3] = ester prodrug vs parent estradiol
# [4] = cited from earlier work; remark: listed apart in the source
# [5] = carbamazepine peak brain tissue concentration by route (Barakat)
# [6] = system: antigen-stimulated spleen cytotoxic T-lymphocyte proliferation; details: oral pretreatment with curcumin before MPA administration; mice; cited from earlier work
# [7] = system: Alzheimer's Transgenic mice; details: 160 ppm in the diet; Lim 2001; cited from earlier work
# [8] = system: Pgp; details: freshly-plated and 72 hour-cultured hepatocytes; dose-dependent; cited from earlier work
# [9] = system: UGT; details: Caco-2 cells; cited from earlier work
# [10] = system: middle aged female Sprague-Dawley rats; details: 500 ppm dietary curcumin; Frautschy 2001; cited from earlier work
# [11] = target: amyloid beta oligomers (Homo sapiens, UniProt P05067); details: cited from earlier work; for prevention of toxic beta amyloid oligomer formation in vitro: Yang
# Chain of amyloid beta oligomers (P05067 672-713 limits assumed): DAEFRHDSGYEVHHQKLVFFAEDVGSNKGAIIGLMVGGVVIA
# [12] = system: differentiated neuroblastoma cells; details: Yang 2005; cited from earlier work
# [13] = glycinate ester of the parent named in the row; cited from earlier work
compound,measurement,setting,value
"O=C(C=Cc1ccc(O)cc1)CC(=O)CCc1ccc(O)cc1 [compound 34, 1,7-bis(4-hydroxyphenyl)-1-heptene-3,5-dione]",potency as neuroprotectant against beta amyloid relative to curcumin,[1]; analysis of the Park data,~10 fold
"COc1cc(C=CC(=O)CC(=O)C=Cc2ccc(O)cc2)ccc1O [compound 32, 1-(4-hydroxy-3-methoxyphenyl)-7-(4-hydroxyphenyl)-1,6-heptadiene-3,5-dione]",potency as neuroprotectant against beta amyloid relative to curcumin,[1]; analysis of the Kim data,~1.5 fold
"CCN(CC)CCC(=O)Oc1ccc2c(c1)CC[C@@H]1[C@@H]2CC[C@]2(C)[C@@H](O)CC[C@@H]12.Cl [3-DEAPE2HCl, 3-N,N-diethylamino propionyl ester hydrochloride]",water solubility of estradiol modified with the moiety,[2]; Al-Ghananeem,about 20 mg/ml
same,increase in water solubility,[3],> 1000 fold
"COc1cc(/C=C/C(=O)COC(=O)/C=C/c2ccc(O)c(OC)c2)ccc1O [compound 31, 4″-(3′″-methoxy-4′″-hydroxyphenyl)-2″-oxo-3″-enebutanyl3-(3′-methoxy-4′ hydroxyphenyl) propenoate]",potency as neuroprotectant against beta amyloid relative to curcumin,[1]; analysis of the Park data,~5 fold
NC(=O)N1c2ccccc2C=Cc2ccccc21 [Carbamazepine],Carbamazepine Peak Brain Tissue,"[4]; Intranasal, 0.2 mg/kg",12 µg/g
same,Carbamazepine Peak Brain Tissue,"[4]; Intravenous, 8.0 mg/kg",4 µg/g
same,Carbamazepine Peak Brain Tissue,"[4]; Oral, 16 mg/kg",3 µg/g
same,"Carbamazepine Peak Brain Tissue, ~uM","[5]; Intranasal, 0.2 mg/kg",~48 µM
same,"Carbamazepine Peak Brain Tissue, ~uM","[5]; Intravenous, 8.0 mg/kg",~16 µM
same,"Carbamazepine Peak Brain Tissue, ~uM","[5]; Oral, 16 mg/kg",~12 µM
"O=C(C=Cc1ccc(O)cc1)CC(=O)C=Cc1ccc(O)cc1 [compound 33, 1,7-bis(4-hydroxyphenyl)-1,6-heptadiene-3,5-dione]",potency relative to natural curcumin in surviving toxic insult by β amyloid,[1],about twice as potent
same,potency as neuroprotectant against beta amyloid relative to curcumin,[1]; analysis of the Kim data,~2 fold
"COc1cc(/C=C/C(=O)CC(=O)/C=C/c2ccc(O)c(OC)c2)ccc1O [curcumin, (E,E)-1,7-bis(4-hydroxy-3-methoxyphenyl)-1,6-heptadiene-3,5-dione]",increase in immunosuppression of antigen-stimulated spleen cytotoxic T-lymphocyte proliferation,[6],six-fold increase
same,reduction of beta amyloid plaque burden,[7],30-40%
same,reduction of the amount of soluble beta amyloid,[7],43%
same,solubility in water,[2],insoluble in water
same,solubility in water (parent compound),[2],about 0.004 mg/ml
same,Rhodamine-123 (R-123) efflux,[8],inhibited
same,inhibition of UGT activity in the conjugation of 1-naphthol,[9],moderate inhibition
same,reduction of amyloid beta deposits induced by beta amyloid infusion,[10],about 80%
same,prevention of toxic beta amyloid oligomer formation in vitro,[11]; 0.25-4 uM curcumin,only minimally prevent
same,prevention of toxic beta amyloid oligomer formation in vitro,[11]; 16-64 uM curcumin,completely prevent
same,curcumin concentration that inhibits the in vitro formation of amyloid beta oligomers,"[11]; in vitro, Yang 2005",0.1 to 1.0 µM
same,curcumin concentration that blocks the in vitro toxicity of Aβ1-42 oligomers,[12],0.1 to 1.0 µM
17β-estradiol,Half-life Of glycinate ester In plasma,[13],1 to 2 min
